Where a SMILES comes first, the peptide text is derived from it. [ ]: non-standard residue; d: D form. NMeF = CN[C@@H](Cc1ccccc1)C(=O)O; NMeL = CN[C@@H](CC(C)C)C(=O)O; dNMeL = CN[C@H](CC(C)C)C(=O)O; NMeV = CN[C@H](C(=O)O)C(C)C; NMeA = CN[C@@H](C)C(=O)O; dNMeA = CN[C@H](C)C(=O)O; Sar = CNCC(=O)O
Columns and labels:
[1] = PAMPA
in vitro = conditions: PAMPA, PAMPA_Papp_Avg

Structure (SMILES) | PAMPA_R1 [1] | PAMPA_R3 [1] | Papp (in vitro) [×10⁻⁶ cm/s]
CC[C@@H](C)[C@H]1NC(=O)[C@@H](Cc2ccccc2)NC(=O)[C@H](CC(C)C)NC(=O)[C@@H](C)N(C)C(=O)[C@@H](CC(C)C)NC(=O)[C@H](CC(C)C)NC(=O)[C@H]2CCCN2C(=O)[C@@H]2CCCN2C(=O)[C@@H](C)NC(=O)[C@H]2CCCN2C1=O [Design D10.37, DLEU *DALA LEU DPHE DILE DPRO DALA PRO DPRO LEU] (cyclo(L[dF][dI][dP][dA]P[dP]L[dL][dNMeA])) | 7.62E-07 | 6.36E-07 | 0.654
CC(C)[C@H]1C(=O)N[C@H](Cc2ccccc2)C(=O)N2CCC[C@H]2C(=O)N[C@H](Cc2ccccc2)C(=O)N2CCC[C@H]2C(=O)N2CCC[C@H]2C(=O)N1C [Design D6.6, PRO PRO *VAL DPHE PRO DPHE] (cyclo([NMeV][dF]P[dF]PP)) | 2.64e-06 cm/s | 6.73e-06 cm/s | 3.64
CC(C)C[C@@H]1NC(=O)[C@@H](CC(C)C)NC(=O)[C@@H]2CCCN2C(=O)[C@@H](CC(C)C)NC(=O)[C@H](C)N(C)C(=O)[C@H](C)NC(=O)[C@H](CC(C)C)N(C)C(=O)[C@@H]2CCCN2C(=O)[C@H](CC(C)C)NC(=O)[C@H](CC(C)C)N(C)C1=O [Design D10.16, DLEU LEU *LEU LEU PRO *LEU ALA *ALA DLEU PRO] (cyclo(A[NMeA][dL]P[dL]L[NMeL]LP[NMeL])) | 2.30E-06 | 2.32E-06 | 2.27
CC(C)C[C@@H]1C(=O)N[C@H](C)C(=O)N(C)[C@H](CC(C)C)C(=O)N2CCC[C@@H]2C(=O)N[C@H](CC(C)C)C(=O)N[C@@H](C)C(=O)N[C@H](CC(C)C)C(=O)N2CCC[C@@H]2C(=O)N1C [Design D8.25, DLEU DPRO *DLEU DALA *DLEU DPRO DLEU ALA] (cyclo(A[dL][dP][dNMeL][dA][dNMeL][dP][dL])) | 7.42E-07 | 9.32E-07 | 0.824
CC(C)[C@@H]1NC(=O)[C@H]2CCCN2C(=O)[C@@H](C(C)C)NC(=O)[C@@H]2CCCN2C(=O)[C@H](Cc2ccccc2)NC(=O)[C@H](Cc2ccccc2)NC(=O)[C@H]2CCCN2C(=O)[C@@H](C(C)C)NC(=O)[C@@H]2CCCN2C(=O)[C@H](C(C)C)NC1=O [Design D10.27, PRO DVAL DPRO VAL VAL PRO DVAL DPRO PHE PHE] (cyclo(FFP[dV][dP]VVP[dV][dP])) | 5.18E-07 | 5.10E-07 | 0.49
CC[C@H](C)[C@@H]1NC(=O)[C@@H](CC(C)C)N(C)C(=O)[C@H](CC(C)C)N(C)C(=O)[C@H](C)NC(=O)[C@H]2CCCN2C(=O)[C@@H]2CCCN2C(=O)[C@@H]2CCCN2C(=O)[C@@H](C(C)C)NC1=O [Design D8.28, PRO DPRO ALA *LEU *DLEU ILE DVAL PRO] (cyclo(A[NMeL][dNMeL]I[dV]PP[dP])) | 1.45E-06 | 7.65E-07 | 1.14
CC[C@H](C)[C@@H]1NC(=O)[C@H](CC(C)C)N(C)C(=O)[C@H]2CCCN2C(=O)[C@@H](CC(C)C)NC(=O)[C@H](CC(C)C)NC(=O)[C@@H](CC(C)C)N(C)C(=O)[C@@H]2CCCN2C1=O [Design D7.2, DLEU DPRO *LEU ILE PRO *DLEU LEU] (cyclo(IP[dNMeL]L[dL][dP][NMeL])) | 1.48e-05 cm/s |  | 11.6
CC[C@H](C)[C@@H]1NC(=O)[C@@H](CC(C)C)NC(=O)[C@@H]2CCCN2C(=O)[C@@H]2CCCN2C(=O)[C@@H](CC(C)C)NC(=O)[C@@H]2CCCN2C(=O)[C@H]2CCCN2C(=O)[C@@H](C(C)C)NC(=O)[C@@H](C)N(C)C1=O [Design D9.14, PRO DLEU ILE *DALA DVAL DPRO PRO DLEU PRO] (cyclo([dL]PP[dL]I[dNMeA][dV][dP]P)) | 6.02E-07 | 5.63E-07 | 0.584
CC[C@H](C)[C@@H]1NC(=O)[C@@H]2CCCN2C(=O)[C@H]2CCCN2C(=O)[C@@H](Cc2ccccc2)NC(=O)[C@@H](CC(C)C)N(C)C(=O)[C@H](C(C)C)NC(=O)[C@@H](CC(C)C)NC(=O)[C@@H]2CCCN2C(=O)[C@H]2CCCN2C(=O)[C@@H](C)N(C)C(=O)[C@H](C(C)C)N(C)C1=O [Design D11.21, PRO ILE *VAL *DALA DPRO PRO DLEU VAL *DLEU DPHE DPRO] (cyclo(I[NMeV][dNMeA][dP]P[dL]V[dNMeL][dF][dP]P)) | 2.47E-07 | 2.17E-07 | 0.24
CC[C@H](C)[C@@H]1NC(=O)[C@H](Cc2ccccc2)NC(=O)[C@H]2CCCN2C(=O)[C@H]([C@@H](C)CC)NC(=O)[C@H](C(C)C)NC(=O)[C@@H](C)NC(=O)[C@H]2CCCN2C1=O (single isomer, unassigned) [Design D7.8.p1, VAL ILE DPRO PHE ILE DPRO DALA] | 4.5e-06 cm/s | 6.04e-06 cm/s | 4.87
CC(C)C[C@@H]1NC(=O)[C@@H](CC(C)C)N(C)C(=O)[C@@H]2CCCN2C(=O)[C@H](CC(C)C)N(C)C(=O)[C@@H](C)NC(=O)[C@@H](CC(C)C)N(C)C(=O)[C@@H]2CCCN2C(=O)CN(C)C(=O)[C@H](CC(C)C)N(C)C(=O)[C@H](Cc2ccccc2)NC1=O [Design D10.57, *LEU *GLY PRO *DLEU DALA *LEU PRO *DLEU LEU PHE] (cyclo(F[NMeL][Sar]P[dNMeL][dA][NMeL]P[dNMeL]L)) | 2.94E-06 | 3.42E-06 | 3.05
CC[C@H](C)[C@@H]1NC(=O)[C@H](CC(C)C)N(C)C(=O)[C@H]2CCCN2C(=O)[C@H]2CCCN2C(=O)[C@H](Cc2ccccc2)NC(=O)[C@@H](CC(C)C)NC(=O)[C@H]2CCCN2C(=O)[C@@H]2CCCN2C1=O [Design D8.27, PHE DPRO DPRO *LEU ILE PRO DPRO DLEU] (cyclo(F[dP][dP][NMeL]IP[dP][dL])) | 2.88E-07 | 2.76E-07 | 0.282
CC[C@@H](C)[C@H]1NC(=O)[C@@H]2CCCN2C(=O)[C@@H](CC(C)C)N(C)C(=O)[C@@H](C(C)C)NC(=O)[C@@H]2CCCN2C(=O)[C@@H](CC(C)C)N(C)C(=O)[C@H](C)N(C)C(=O)[C@@H](C)NC1=O [Design D8.18, DILE DALA *ALA *DLEU PRO DVAL *DLEU PRO] (cyclo([NMeA][dNMeL]P[dV][dNMeL]P[dI][dA])) | 1.31E-06 | 9.35E-07 | 1.04
CC[C@H](C)[C@@H]1NC(=O)[C@H](Cc2ccccc2)N(C)C(=O)[C@H]2CCCN2C(=O)[C@H]([C@@H](C)CC)NC(=O)[C@H](C(C)C)NC(=O)[C@@H](C)NC(=O)[C@H]2CCCN2C1=O [Design D7.9, VAL ILE DPRO *PHE ILE DPRO DALA] (cyclo(I[dP][NMeF]I[dP][dA]V)) | 6.71e-06 cm/s | 6.53e-06 cm/s | 7.09
CC[C@H](C)[C@@H]1NC(=O)[C@@H](C)N(C)C(=O)[C@@H](C)N(C)C(=O)[C@@H]2CCCN2C(=O)[C@H](CC(C)C)NC(=O)[C@H](CC(C)C)NC(=O)[C@@H](CC(C)C)NC(=O)[C@@H]2CCCN2C(=O)[C@H]2CCCN2C1=O [Design D9.11, PRO DLEU LEU LEU PRO *DALA *DALA ILE DPRO] (cyclo([dL]LLP[dNMeA][dNMeA]I[dP]P)) | 2.61E-07 | 2.10E-07 | 0.223

— article PMC9490236, “Accurate de novo design of membrane-traversing macrocycles” (Cell, 2022)
